The values that follow come from patent US20230089368A1, “POLYAROMATIC UREA DERIVATIVES AND THEIR USE IN THE TREATMENT OF MUSCLE DISEASES” (ANAGENESIS BIOTECHNOLOGIES S.A.S., priority 2019, published 2023).

For test [1], the system named is muscle progenitors (hMP) from DMD hiPSC or WT hiPSC. Put plainly: Myotube assay: myogenic activity (total myotube area per well). It is filed as cell-based, human. Particulars: Homo sapiens, 72 h, myotube assay, compounds incubated 3 days; for Emax: read-out: MA (normalized Myotube Area, efficacy); for EC50: 10 points dose-response 1.5 nM to 30 μM, read-out: EC50 (myogenic activity, half-maximal generation of myotubes). How it is done:
An in vitro assay for assessing the efficacy of compounds for use in treating, ameliorating, delaying, curing and/or preventing a disease or condition associated with muscle cells and/or satellite cells is described in example 78. Herein, the generation of myotubes and satellite cells after adding a compound to a myotube assay workflow is assessed. Said myotube assay workflow is derived from wild-type or DMD human induced pluripotent stem cells (WT hiPSC or DMD hiPSC). Before the addition of said compound, the assay comprises satellite-like cells, but no significant amount of myotubes.
(§1) The efficacy of said compound for use in treating, ameliorating, delaying, curing and/or preventing a disease or condition associated with muscle cells and/or satellite cells is positively correlated with the generation of myotubes (i.e. the increase of the area occupied by myotubes on the assay) and/or satellite cells (i.e. the increase of the number of satellite cells) in the assay after adding said compound. The generation of myotubes by the addition of said compound is expressed as the EC50 value, the concentration of said compound that corresponds with the half-maximal generation of myotubes, and the MA (normalized myotube area) value, the normalized area occupied by generated myotubes on the assay. […] Since muscle cells are formed from myotubes during myogenesis, the generation of myotubes in the assay is a good indicator of the ability of said compound to induce the formation of functional muscle cells in vivo. The number of satellite cells is measured as the percentage of Pax7 positive cells, relative to the total number of cells in the assay, as shown in FIG. 3. The percentage of Pax7 is a good indicator of the ability of said compound to induce the formation of satellite cells which are able to play a role in muscle repair and regeneration in vivo.
(§2) DMD human induced pluripotent stem cells (hereafter “DMD hiPSC”), generated from the NORM-1 hiPSC WT cell line by gene editing, or WT human induced pluripotent stem cells (hereafter “WT hiPSC”), being NORM-1 hiPSC wt cell line, have been differentiated according to Chal et al. 2015, 2016, to produce muscle progenitors (hereafter “hMP”). The hMP population contains satellite-like cells (i.e Pax7-positive cells) and satellite cells' progenies (i.e. Myogenin-positive cells).
(§3) FIG. 1 provides an example of a Myotube assay workflow. At day 0, hMP are thawed and 3.1 million cells are plated into a T75-flask coated with hESC-qualified Matrigel™ (Corning) in SkGM proliferating medium (PromoCells), supplemented with 5 μM Y-27632 (Tocris Bioscience). On day 2, SkGM proliferating medium is refreshed. On day 4, hMP are harvested and transferred into a 384-well plate coated with collagen type I at a density of 3500 cells/well in a DMEM-based medium, containing 5% of knockout serum replacement (Gibco), 1% PenStrep (Gibco), 1% MEM NEAA (Gibco) and 0.1 mM 2-mercaptoethanol (Gibco) (hereafter “K5 medium”) and 5 μM Y-27632. Compounds to be tested are then added in the medium and incubated for 3 days at 37° C. On day 7, cells are fixed and immunostained. For example, myotubes (alpha-actinin staining) and satellite-like (Pax7 staining) cells can be analyzed for total myotube area per well or Pax7-positive cell quantification.
DMD hMP were put in the Myotube assay according to the workflow described in Example 2.1. In particular, compound (i) was added at concentrations ranging from 1.5 nM to 30 μM, starting from day 4. hMP were cultivated for three more days in presence of compound (i), then fixed and analyzed for quantification of total myotube area per well. Duplicates of each condition were averaged.
Qualitative scale: ++++: EC50<500 nM; +++: 500 nM≤EC50<1000 nM; ++: 1000 nM≤EC50<5000 nM; +: EC50≥5000 nM; +++: MA≥75%; ++: 50%≤MA<75%; +: 25%≤MA<50%.

Test [2] concerns satellite-like cells (Pax7-positive cells) in hMP. Put plainly: Myotube assay: Pax7-positive (satellite-like) cell quantification. Type of test: cell-based, human. Further details: key to Pax7% (pool of Pax7-positive cells) / Pax7: −: Depletes the pool of cells, while positively affects the myotubes; +: Maintains or increases the pool of cells, with at least 1 of the highest concentration known to be cytotoxic; ++: Maintains or increases the pool of cells, without any toxicity. To be noted: myotube assay, compounds incubated 3 days.
Excerpt: as §1, §2, §3
DMD hMP were put in the Myotube assay according to the workflow described in Example 2.1. In particular, compound (i) was added at concentrations ranging from 1.5 nM to 30 μM, starting from day 4. hMP were cultivated for three more days in presence of compound (i), then fixed and analyzed for percentage of Pax7-positive cells and nuclei number. Duplicates of each condition were averaged.
(−): Depletes the pool of cells, while positively affects the myotubes; (+): Maintains or increases the pool of cells, with at least 1 of the highest concentration known to be cytotoxic; and (++) Maintains or increases the pool of cells, without any toxicity.

Bounds are passed on as bounds.

As for `CC(C)(C)c1cc(NC(=O)Nc2cc(F)c(Oc3ccnc4[nH]c(=O)cnc34)cc2F)n(-c2ccccc2)n1` [(bt), 1-(3-(tert-butyl)-1-phenyl-1H-pyrazol-5-yl)-3-(2,5-difluoro-4-((3-oxo-3,4-dihydropyrido[2,3-b]pyrazin-8-yl)oxy)phenyl)urea], the Emax in test [1] is ≥ 75%. Further, in test [2], the “Pax7% (pool of Pax7-positive cells)” value is “++”.

As for `Cc1ccc(-n2nc(C(C)(C)C)cc2NC(=O)Nc2ccc(Oc3ccnc4[nH]c(=O)cnc34)cc2C(F)(F)F)cc1` [(az), 1-(3-(tert-butyl)-1-(p-tolyl)-1H-pyrazol-5-yl)-3-(4-((3-oxo-3,4-dihydropyrido[2,3-b]pyrazin-8-yl)oxy)-2-(trifluoromethyl)phenyl)urea], the Emax in test [1] is ≥ 75%. Further, the “Pax7% (pool of Pax7-positive cells)” value in test [2] is “++”.

`CC(C)(C)c1cc(NC(=O)Nc2ccc(Oc3ccnc4[nH]c(=O)cnc34)cc2F)n(CCN2CCOCC2)n1` [(k), 1-(3-(tert-butyl)-1-(2-morpholinoethyl)-1H-pyrazol-5-yl)-3-(2-fluoro-4-((3-oxo-3,4-dihydropyrido[2,3-b]pyrazin-8-yl)oxy)phenyl)urea]: in test [1], the Emax lay within 50 to 75%. In addition, the “Pax7% (pool of Pax7-positive cells)” value in test [2] is recorded as “++”.

For `CC(C)(C)c1cc(NC(=O)Nc2ccc(Oc3ccnc4[nH]c(=O)cnc34)cc2F)n(-c2cccnc2)n1` [(l), 1-(3-(tert-butyl)-1-(pyridin-3-yl)-1H-pyrazol-5-yl)-3-(2-fluoro-4-((3-oxo-3,4-dihydropyrido[2,3-b]pyrazin-8-yl)oxy)phenyl)urea], the Emax in test [1] lay in the range of 50 to 75%. Also, the “Pax7% (pool of Pax7-positive cells)” value in test [2] is reported as “+”.

On to `CC(C)(C)c1cc(NC(=O)Nc2cc(Oc3ccnc4[nH]c(=O)cnc34)ccc2F)n(-c2ccccc2)n1` [(cq), 1-(3-(tert-butyl)-1-phenyl-1H-pyrazol-5-yl)-3-(2-fluoro-5-((3-oxo-3,4-dihydropyrido[2,3-b]pyrazin-8-yl)oxy)phenyl)urea], for which, in test [1], the Emax was ≥ 75%. Also, in test [2], the “Pax7% (pool of Pax7-positive cells)” value is on record as “++”.

As to `CSc1cc(Oc2ccnc3c2OCCN3)ccc1NC(=O)Nc1cc(C(C)(C)C)nn1-c1ccccc1` [(cy), 1-(3-(tert-butyl)-1-phenyl-1H-pyrazol-5-yl)-3-(4-((3,4-dihydro-2H-pyrido[3,2-b][1,4]oxazin-8-yl)oxy)-2-(methylthio)phenyl)urea], the Emax in test [1] is ≥ 75%. In test [2], the “Pax7% (pool of Pax7-positive cells)” value is reported as “+”.

Consider `CSc1cc(Oc2ccnc3c2CCC(=O)N3)ccc1NC(=O)Nc1cncc(C(F)(F)F)c1` [(cg), 1-(2-(methylthio)-4-((7-oxo-5,6,7,8-tetrahydro-1,8-naphthyridin-4-yl)oxy)phenyl)-3-(5-(trifluoromethyl)pyridin-3-yl)urea], for which the Emax in test [1] was ≥ 75%. For the same compound, in test [2], the “Pax7% (pool of Pax7-positive cells)” value is “−”.

In the case of `CSc1cc(Oc2ccnc3c2CCC(=O)N3)ccc1NC(=O)Nc1cc(C(C)(C)C)nn1-c1cccc(Cl)c1` [(bz), 1-(3-(tert-butyl)-1-(3-chlorophenyl)-1H-pyrazol-5-yl)-3-(2-(methylthio)-4-((7-oxo-5,6,7,8-tetrahydro-1,8-naphthyridin-4-yl)oxy)phenyl)urea], in test [1], the Emax is ≥ 75%. Moreover, the “Pax7% (pool of Pax7-positive cells)” value in test [2] was “+”.

As for `COc1ccccc1-n1nc(C(C)(C)C)cc1NC(=O)Nc1ccc(Oc2ccnc3[nH]c(=O)cnc23)cc1SC` [(av), 1-(3-(tert-butyl)-1-(2-methoxyphenyl)-1H-pyrazol-5-yl)-3-(2-(methylthio)-4-((3-oxo-3,4-dihydropyrido[2,3-b]pyrazin-8-yl)oxy)phenyl)urea], in test [1], the EC50 is ≥ 5 µM and the Emax was ≥ 75%. The “Pax7% (pool of Pax7-positive cells)” value in test [2] is on record as “++”.

Consider `CC(C)(C)c1cc(NC(=O)Nc2ccc(Oc3ccnc4[nH]c(=O)cnc34)nc2)n(-c2ccccc2)n1` [(t), 1-(3-(tert-butyl)-1-phenyl-1H-pyrazol-5-yl)-3-(6-((3-oxo-3,4-dihydropyrido[2,3-b]pyrazin-8-yl)oxy)pyridin-3-yl)urea], for which the Emax in test [1] was 25 to 50%. Further, in test [2], the “Pax7% (pool of Pax7-positive cells)” value is listed as “+”.

As to `COc1cc(Oc2ccnc3[nH]c(=O)cnc23)ccc1NC(=O)Nc1cc(C(C)(C)C)nn1-c1ccccc1` [(bc), 1-(3-(tert-butyl)-1-phenyl-1H-pyrazol-5-yl)-3-(2-methoxy-4-((3-oxo-3,4-dihydropyrido[2,3-b]pyrazin-8-yl)oxy)phenyl)urea], in test [1], the EC50 was 1 to 5 µM and the Emax is ≥ 75%. The “Pax7% (pool of Pax7-positive cells)” value in test [2] was “++”.

`O=C(Nc1ccc(Oc2ccnc3[nH]c(=O)cnc23)cc1F)Nc1cc(C2CC2)nn1-c1ccccc1` [(e), 1-(3-cyclopropyl-1-phenyl-1H-pyrazol-5-yl)-3-(2-fluoro-4-((3-oxo-3,4-dihydropyrido[2,3-b]pyrazin-8-yl)oxy)phenyl)urea]: the Emax in test [1] fell in the range of 25 to 50%. The “Pax7% (pool of Pax7-positive cells)” value in test [2] is recorded as “++”.

Turning to `CSc1cc(Oc2ccnc(NC(=O)OC(C)(C)C)c2)ccc1NC(=O)Nc1cc(C(C)(C)C)nn1-c1ccccc1` [(bi), tert-butyl N-[4-{4-[(5-tert-butyl-2-phenyl-pyrazol-3-yl)carbamoylamino]-3-methylsulfanyl-phenoxy}-2-pyridyl]carbamate], in test [1], the Emax is ≥ 75%. In addition, in test [2], the “Pax7% (pool of Pax7-positive cells)” value was “++”.

`CSc1cc(Oc2ccnc3[nH]c(=O)cnc23)ccc1NC(=O)Nc1cc(C(C)(C)C)nn1-c1ccc(OCCN2CCCCC2)cc1` [(ce), 1-(3-(tert-butyl)-1-(4-(2-(piperidin-1-yl)ethoxy)phenyl)-1H-pyrazol-5-yl)-3-(2-(methylthio)-4-((3-oxo-3,4-dihydropyrido[2,3-b]pyrazin-8-yl)oxy)phenyl)urea]: in test [1], the Emax is ≥ 75%. Besides, the “Pax7% (pool of Pax7-positive cells)” value in test [2] is “+”.

`CSc1cc(Oc2ncnc3[nH]c(=O)cnc23)ccc1NC(=O)Nc1cc(C(C)(C)C)nn1-c1ccccc1` [(bv), 1-(3-(tert-butyl)-1-phenyl-1H-pyrazol-5-yl)-3-(2-(methylthio)-4-((7-oxo-7,8-dihydropteridin-4-yl)oxy)phenyl)urea]: the Emax in test [1] was ≥ 75%. Besides, the “Pax7% (pool of Pax7-positive cells)” value in test [2] is “++”.

Consider `CSc1cc(Oc2ccnc3[nH]c(=O)[nH]c23)ccc1NC(=O)Nc1cc(C(C)(C)C)nn1-c1ccccc1` [(dm), 1-(3-(tert-butyl)-1-phenyl-1H-pyrazol-5-yl)-3-(2-(methylthio)-4-((2-oxo-2,3-dihydro-1H-imidazo[4,5-b]pyridin-7-yl)oxy)phenyl)urea], for which the Emax in test [1] is ≥ 75%. The “Pax7% (pool of Pax7-positive cells)” value in test [2] is reported as “−”.

Regarding `CSc1cc(NC(=O)Nc2cc(C(C)(C)C)nn2-c2ccccc2)ccc1Oc1ccnc2[nH]c(=O)cnc12` [(dn), 1-(3-(tert-butyl)-1-phenyl-1H-pyrazol-5-yl)-3-(3-(methylthio)-4-((3-oxo-3,4-dihydropyrido[2,3-b]pyrazin-8-yl)oxy)phenyl)urea], the Emax in test [1] is ≥ 75%. The “Pax7% (pool of Pax7-positive cells)” value in test [2] is recorded as “+”.
